The results in this text go back to patent publication US20110098325A1, “PYRIDINE BENZAMIDES AND PYRAZINE BENZAMIDES USED AS PKD INHIBITORS” (CANCER RESEARCH TECHNOLOGY LIMITED, priority 2006, published 2011).

Structures are written as SMILES. “And” between values parts separate entries of the source, which are not always exact repeats. Equal values may be shown once.

For the experiment, the target named is T1, Murine PKD1 kinase domain (Mus musculus, UniProt Q62101).
T1 construct: hexahistidine (pFastBac HTb leader) (N); made in house; host or cells: Sf9 insect cells, baculovirus (Bac-to-Bac HT, pFastBac HTb)
T1 sequence (Q62101 with tags, fused parts or gaps R683W): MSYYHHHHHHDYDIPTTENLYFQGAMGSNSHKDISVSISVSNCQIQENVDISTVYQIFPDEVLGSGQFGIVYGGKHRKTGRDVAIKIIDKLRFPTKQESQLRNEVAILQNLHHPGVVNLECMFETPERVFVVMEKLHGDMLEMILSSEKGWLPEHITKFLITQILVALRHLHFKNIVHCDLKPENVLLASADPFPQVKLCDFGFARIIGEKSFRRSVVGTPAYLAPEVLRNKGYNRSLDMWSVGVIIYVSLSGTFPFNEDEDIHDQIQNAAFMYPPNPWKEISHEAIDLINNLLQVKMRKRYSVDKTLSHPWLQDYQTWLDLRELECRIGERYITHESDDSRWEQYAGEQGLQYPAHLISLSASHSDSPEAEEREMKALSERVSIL
Nature of the experiment: PKD1 (Murine Kinase Domain) Enzyme Activity Assay (IMAP fluorescence polarisation). The class given is biochemical. To be noted: 10 μM ATP, 60 minutes, room temperature. (In general: Fluorescence polarisation rises when a labelled molecule tumbles more slowly, as on binding a larger partner.)
Consider `COc1cc(-c2cc(-c3cccc(C(=O)NCCN(C)C)c3)cnc2N)ccc1O` [Y-059, 3-[6-Amino-5-(4-hydroxy-3-methoxy-phenyl)-pyridin-3-yl]-N-(2-dimethylamino-ethyl)-benzamide], for which the IC50 (commonly the concentration needed to halve the response being measured) is < 1000 nM and 8.5 nM.

`COc1cc(-c2cncc(-c3cccc(C(=O)NCCN(C)C)c3)n2)ccc1O` [X-007, N-(2-Dimethylamino-ethyl)-3-[6-(4-hydroxy-3-methoxy-phenyl)-pyrazin-2-yl]-benzamide] showed an IC50 below 1000 nM.

Turning to `COc1cc(-c2nc(-c3cccc(C(=O)NCCN(C)C)c3)cnc2N)ccc1O` [X-017, 3-[5-Amino-6-(4-hydroxy-3-methoxy-phenyl)-pyrazin-2-yl]-N-(2-dimethylamino-ethyl)-benzamide], the IC50 is < 1000 nM and 12 nM.
